assay: recombinant barcode read abundance after kanamycin selection (control-corrected) (log10(CPM+1)); higher = more efficient recombination; sequences stand for … in AGTGCAGAGAAAATCGGCCAGTTTTCTCTGCCTGCAGTCCGCATGCCGT…AGATTTATGCAGCGGACTGCCTTTCTCCCAAAGTGATAAACCGGACAGTATCATGGACCGGTTTTCCCGGTAATCCGTATTTGCAAGGTTGGTTTCACT; site = the 11-nt target
Method in brief: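 Each value is log10(CPM+1). It describes recombination efficiency, taken as averaged, control-corrected counts per million of barcodes at recombinant junctions. The pooled E. coli library paired targets with IS621 bridge RNA target-binding loops, was co-electroporated with a donor plasmid, and was plated twice on chloramphenicol/ampicillin LB agar (control) and twice on chloramphenicol/ampicillin/kanamycin containing 0.1 mM IPTG.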
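Also: IS621 recombinase and bridge RNA in Escherichia coli cells.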

Row | Sequence | recombinant barcode read abundance (log10)
1 | TCCCGATCTTGGGTTCTAACCTGTTGCCT (site TCCCGAGCTAG) | 0.065
2 | CGTATAGCTTGGGTTCTAACCTGTTGCCT (site CGTATAGCTAG) | 0.285
3 | CACAGTGCTTGGGTTCTAACCTGTTGCCT (site CACAGTGCTAG) | 0.235
4 | GGCGTCACTTGGGTTCTAACCTGTTGCCT (site GGCGACCCTAG) | 0.111
5 | CTATGACCTTGGGTTCTAACCTGTTGCAT (site CTATGACCTAA) | 0.0613
6 | CACTTCCCTTGGGTTCTAACCTGTTGCAT (site CACTTCCCTAC) | 0.106
7 | ATGCAACCTTGGGTTCTAACCTGTTGCCT (site ATGCAAACTAG) | 0.216
8 | AGGTCCACTTGGGTTCTAACCTGTTGCTG (site AGGCCCACTGA) | 0.109
9 | CAGCCCTCTTGGGTTCTAACCTGTTGCCT (site CGGCCCTCTAG) | 0.0354
10 | TGGACGACTTGGGTTCTAACCTGTTGCTT (site TGGACGACTAA) | 0.592
11 | TTGGTGCCTTGGGTTCTAACCTGTTGCCT (site TTGGTTCCTAG) | 0.0399
12 | CCGCATACTTGGGTTCTAACCTGTTGCCT (site CAGCATACTAG) | 0.0752
13 | GCAGCGACTTGGGTTCTAACCTGTTGCCT (site GCCGCGACTAG) | 0.148
14 | TGGATTGCTTGGGTTCTAACCTGTTGCCT (site TGGATTGCTAG) | 0.74
15 | GTCGGAGCTTGGGTTCTAACCTGTTGCCG (site GTCGGAGCTCA) | 0.0109
16 | ACCCTGTCTTGGGTTCTAACCTGTTGCCG (site ACCCCGTCTAG) | 0.0728
17 | GTGACCGCTTGGGTTCTAACCTGTTGCCT (site GTGACCGCTAG) | 1.89
18 | TCATATTCTTGGGTTCTAACCTGTTGCCT (site TCACATTCTAG) | 0.0604

Row | Sequence | recombinant barcode read abundance (log10)
19 | CGTGAGACTTGGGTTCTAACCTGTTGCCT (site CGTCAGACTAG) | 0.203
20 | CTATTGTCTTGGGTTCTAACCTGTTGCGT (site CTATTGTCTTC) | 0.0685
21 | GGAAGCTCTTGGGTTCTAACCTGTTGCTT (site GGAAGCTCTAA) | 0.591
22 | ACCAGTCCTTGGGTTCTAACCTGTTGCTA (site ACCAGTCCTTA) | 0.934
23 | TACTAAGCTTGGGTTCTAACCTGTTGCGT (site TACTAAGCTAC) | 1.1
24 | ATGTCTCCTTGGGTTCTAACCTGTTGCCT (site GTGTCTCCTAG) | 0.0531
25 | GCATCGGCTTGGGTTCTAACCTGTTGCCT (site GCCTCGGCTAG) | 0.0153
26 | CATTTCCCTTGGGTTCTAACCTGTTGCCT (site CATTTCCCTAG) | 0.23
27 | GATTCTCCTTGGGTTCTAACCTGTTGCGT (site GATTCTCCTAT) | 0.118
28 | CCATATGCTTGGGTTCTAACCTGTTGCCT (site AACACGACTGA) | 0.0524
29 | ACTTAGCCTTGGGTTCTAACCTGTTGCCT (site ACTTAGCCTAT) | 0.0989
30 | TGCGGAGCTTGGGTTCTAACCTGTTGCCG (site GATTATACTAA) | 0.0782
31 | TGAGTCTCTTGGGTTCTAACCTGTTGCCA (site TGAGTCTCTTG) | 1.47
32 | CTAAATACTTGGGTTCTAACCTGTTGCGT (site CTAAATACTAC) | 1.54
33 | ACTAGTGCTTGGGTTCTAACCTGTTGCCT (site AGTAGTGCTAG) | 0.0194
34 | GGAGTCCCTTGGGTTCTAACCTGTTGCGA (site GGAGTCCCTTC) | 2.39
35 | CCTCCCTCTTGGGTTCTAACCTGTTGCTG (site CCTCCCTCTCA) | 2.49
36 | TAATCGTCTTGGGTTCTAACCTGTTGCCT (site TAATCGACTAG) | 0.0844
